Measurements published in patent US10179929B2, “Water-soluble activatable molecular probes, intermediates for the synthesis thereof and associated detection methods” (ECOLE NORMALE SUPERIEURE DE LYON, priority 2014, dated 2019).

Assay: Evaluation of hydrosolubility: presence or absence of precipitate in buffered solutions
Conditions: for hydrosolubility (presence or absence of precipitate): diluted from DMSO stock solution
Protocol: The hydrosolubility of the compounds was evaluated as a function of the presence or absence of precipitate in buffered solutions of the compounds in question at different concentrations.
These stock solutions were then diluted in a commercial PBS buffer in order to obtain a range of final concentrations between 1 mM and 50 μM. A compound was declared to be insoluble if a precipitate appeared and persisted after dilution.

Row | Compound | appearance of stock solution in DMSO (100 mM in DMSO) | hydrosolubility (presence or absence of precipitate) (50 μM in PBS buffer) | hydrosolubility (presence or absence of precipitate) (100 μM in PBS buffer) | hydrosolubility (presence or absence of precipitate) (250 μM in PBS buffer) | hydrosolubility (presence or absence of precipitate) (500 μM in PBS buffer) | hydrosolubility (presence or absence of precipitate) (1 mM in PBS buffer)
1 | Cc1cc(=O)oc2cc(NC(=O)[C@@H](N)CC(C)C)ccc12 [AMC-Leu, reference compound] | cloudy solution |  |  |  |  | 
2 | Cc1cc(=O)oc2cc(OC(=O)N3CCNCC3CNC(=O)Cc3ccccc3)ccc12 (centres unmarked) [Compound 12, 4-methyl-2-oxo-2H-chromen-7-yl 2-((2-phenylacetamido)methyl)piperazine-1-carboxylate] |  | soluble | soluble | soluble | soluble | soluble
3 | CCCCCCCC(=O)OCC1CNCCN1C(=O)Oc1ccc2c(C)cc(=O)oc2c1 (centres unmarked) [Compound 21, 4-methyl-2-oxo-2H-chromen-7-yl 2-((octanoyloxy)methyl)piperazine-1-carboxylate] |  | soluble | soluble | soluble | insoluble | insoluble
4 | CCCCCCCC(=O)OCC1CN(CCCCS(=O)(=O)O)CCN1C(=O)Oc1ccc2c(C)cc(=O)oc2c1 (centres unmarked) [Compound 22, 4-(4-(((4-methyl-2-oxo-2H-chromen-7-yl)oxy)carbonyl)-3-((octanoyloxy)methyl)piperazin-1-yl)butane-1-sulfonic Acid] |  | soluble | soluble | soluble | soluble | soluble
5 | COCCOCCOCCn1cc(CCC(=O)N2CCN(C(=O)Oc3ccc([N+](=O)[O-])cc3)C(CNC(=O)Cc3ccccc3)C2)nn1 (centres unmarked) [Compound 36, 4-nitrophenyl 4-(3-(1-(2-(2-(2-methoxyethoxy)ethoxy)ethyl)-1H-1,2,3-triazol-4-yl)propanoyl)-2-((2-phenylacetamido)methyl)piperazine-1-carboxylate] |  | soluble | soluble | soluble | soluble | soluble
6 | COCCOCCOCCn1cc(CCC(=O)N2CCN(C(=O)Oc3ccc(Cl)cc3-c3nc4ccc(Cl)cc4c(=O)[nH]3)C(CNC(=O)Cc3ccccc3)C2)nn1 (centres unmarked) [Compound 39, 4-chloro-2-(6-chloro-4-oxo-3,4-dihydroquinazolin-2-yl)phenyl 4-(3-(1-(2-(2-(2-methoxyethoxy)ethoxy)ethyl)-1H-1,2,3-triazol-4-yl)propanoyl)-2-((2-phenylacetamido)methyl)piperazine-1-carboxylate] |  | soluble | soluble | soluble | insoluble | insoluble

Next, values leading:

Row | appearance of stock solution in DMSO (100 mM in DMSO) | hydrosolubility (presence or absence of precipitate) (50 μM in PBS buffer) | hydrosolubility (presence or absence of precipitate) (100 μM in PBS buffer) | hydrosolubility (presence or absence of precipitate) (250 μM in PBS buffer) | hydrosolubility (presence or absence of precipitate) (500 μM in PBS buffer) | hydrosolubility (presence or absence of precipitate) (1 mM in PBS buffer) | Compound
7 |  | insoluble | insoluble | insoluble | insoluble | insoluble | Cc1cc(=O)oc2cc(OC(=O)N3CCCCC3CNC(=O)Cc3ccccc3)ccc12 (centres unmarked) [Compound 15, 4-methyl-2-oxo-2H-chromen-7-yl 2-((2-phenylacetamido)methyl)piperidine-1-carboxylate, reference compound]
8 |  | soluble | soluble | insoluble | insoluble | insoluble | CCCCCCCC(=O)OCC1CCCCN1C(=O)Oc1ccc2c(C)cc(=O)oc2c1 (centres unmarked) [Compound 27, 4-methyl-2-oxo-2H-chromen-7-yl 2-((octanoyloxy)methyl)piperidine-1-carboxylate, reference compound]
9 |  | soluble | soluble | soluble | soluble | soluble | COCCOCCOCCn1cc(CCC(=O)N2CCN(C(=O)Oc3ccc4c(C)cc(=O)oc4c3)C(CNC(=O)Cc3ccccc3)C2)nn1 (centres unmarked) [Compound 31, 4-methyl-2-oxo-2H-chromen-7-yl 4-(3-(1-(2-(2-(2-methoxyethoxy)ethoxy)ethyl)-1H-1,2,3-triazol-4-yl)propanoyl)-2-((2-phenylacetamido)methyl)piperazine-1-carboxylate]
